According to PubChem BioAssay (NCI):
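48-hour exposure; five concentrations; linearly interpolated endpoints. TGI is the concentration that stops growth completely.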

Experiments:
Assay in all cases: DTP human tumour cell line panel, 48 h
A498 renal = system: A498 renal
NCI-H460 lung = system: NCI-H460 lung
SN12C renal = system: SN12C renal
786-0 renal = system: 786-0 renal
KM12 colon = system: KM12 colon
DU-145 prostate = system: DU-145 prostate
HCT-15 colon = system: HCT-15 colon
SW-620 colon = system: SW-620 colon
SNB-75 CNS = system: SNB-75 CNS
RXF 393 renal = system: RXF 393 renal
T-47D breast = system: T-47D breast
ACHN renal = system: ACHN renal
MDA-MB-231 breast = system: MDA-MB-231 breast
SF-268 CNS = system: SF-268 CNS
U251 CNS = system: U251 CNS
OVCAR-3 ovarian = system: OVCAR-3 ovarian
COLO 205 colon = system: COLO 205 colon
HL-60(TB) leukemia = system: HL-60(TB) leukemia
NCI/ADR-RES ovarian = system: NCI/ADR-RES ovarian
NCI-H23 lung = system: NCI-H23 lung
HCC-2998 colon = system: HCC-2998 colon
NCI-H522 lung = system: NCI-H522 lung
HOP-92 NSCLC = system: HOP-92 NSCLC
CAKI-1 renal = system: CAKI-1 renal
NCI-H226 lung = system: NCI-H226 lung
SK-MEL-2 melanoma = system: SK-MEL-2 melanoma
M14 melanoma = system: M14 melanoma
SR leukemia = system: SR leukemia
PC-3 prostate = system: PC-3 prostate
SK-MEL-28 melanoma = system: SK-MEL-28 melanoma
MALME-3M melanoma = system: MALME-3M melanoma
UACC-257 melanoma = system: UACC-257 melanoma
HT29 colon = system: HT29 colon
TK-10 renal = system: TK-10 renal
EKVX NSCLC = system: EKVX NSCLC
CCRF-CEM leukemia = system: CCRF-CEM leukemia
MCF7 breast = system: MCF7 breast
MDA-MB-435 = system: MDA-MB-435
OVCAR-5 ovarian = system: OVCAR-5 ovarian
HOP-62 NSCLC = system: HOP-62 NSCLC
RPMI-8226 leukemia = system: RPMI-8226 leukemia
SK-OV-3 ovarian = system: SK-OV-3 ovarian
HS 578T breast = system: HS 578T breast
SF-295 CNS = system: SF-295 CNS
MDA-N = system: MDA-N
OVCAR-4 ovarian = system: OVCAR-4 ovarian
MOLT-4 leukemia = system: MOLT-4 leukemia
SNB-19 CNS = system: SNB-19 CNS
IGROV1 ovarian = system: IGROV1 ovarian
SF-539 CNS = system: SF-539 CNS
UO-31 renal = system: UO-31 renal
OVCAR-8 ovarian = system: OVCAR-8 ovarian
LOX IMVI melanoma = system: LOX IMVI melanoma
SK-MEL-5 melanoma = system: SK-MEL-5 melanoma
K-562 leukemia = system: K-562 leukemia

Measured: TGI

S=C1C(CCCOCc2ccccc2)C2CCCC23CC2(CCN13)OCCS2 (stereo not given)
> 10 µM: all assays above
